Our source for the IC50 values is BindingDB's records for doi:10.1021/jm9700171 (Washington University, 1998).

For this experiment, the target named is Substance-P receptor (Bos taurus). The experiment in a line: Binding affinity was measured against the Tachykinin receptor 1 in bovine retina using [3H]SP.

pIC50: −log10 of the molar value.

In turn, `Cc1cc(C)cc(C(=O)N[C@H]2CCN(C(=O)c3cc(Cl)cc(Cl)c3)[C@H](Cc3ccccc3)C2)c1` showed a pIC50 of 7.59.

`Cc1cc(C)cc(C(=O)N2CC[C@H](NCCc3ccccc3)C[C@H]2Cc2ccccc2)c1` [CGP-47899]: the pIC50 is 7.82.
